From ChEMBL document CHEMBL1909281, “FDA-approved drug labeling for the study of drug-induced liver injury” (Drug Discov Today, 2011)

Tested on: Hepatotoxicity
Test: FDA Liver Toxicity Knowledge Base Benchmark Dataset (LTKB-BD) drugs of most concern for DILI

Row | SMILES | LTKB_BD DILI severity score (Liver) | LTKB_BD DILI severity score
1 | O=C(O)Cc1ccccc1Nc1c(Cl)cccc1Cl [DICLOFENAC] | 7 | 
2 | CC(CCc1ccccc1)NCC(O)c1ccc(O)c(C(N)=O)c1 (stereo not drawn) [LABETALOL] |  | 8
3 | CCN(CC)CCNC(=O)c1c(C)[nH]c(/C=C2\C(=O)Nc3ccc(F)cc32)c1C [SUNITINIB] |  | 8
4 | Clc1ccccc1CN1CCc2sccc2C1 [TICLOPIDINE] | 4 | 
5 | Cc1nnc(C(C)C)n1[C@@H]1C[C@H]2CC[C@@H](C1)N2CC[C@H](NC(=O)C1CCC(F)(F)CC1)c1ccccc1 [MARAVIROC] |  | 3
6 | NNC(=O)c1ccncc1 [ISONIAZID] |  | 8
7 | COC(c1ccccc1)(c1ccccc1)[C@H](Oc1nc(C)cc(C)n1)C(=O)O [AMBRISENTAN] |  | 5
8 | CS(=O)(=O)OCCCCOS(C)(=O)=O [BUSULFAN] |  | 8
9 | CC[C@H]1OC(=O)[C@H](C)[C@@H](O[C@H]2C[C@@](C)(OC)[C@@H](O)[C@H](C)O2)[C@H](C)[C@@H](O[C@@H]2O[C@H](C)C[C@H](N(C)C)[C@H]2O)[C@](C)(O)C[C@@H](C)C(=O)[C@H](C)[C@@H](O)[C@]1(C)O [ERYTHROMYCIN] |  | 5
10 | C[C@](N)(Cc1ccc(O)c(O)c1)C(=O)O [METHYLDOPA] |  | 8
11 | Nc1ccn([C@@H]2CS[C@H](CO)O2)c(=O)n1 [LAMIVUDINE] |  | 8
12 | CN(C)/N=N/c1[nH]cnc1C(N)=O [DACARBAZINE] |  | 6
13 | O=C(O)c1cn(C2CC2)c2cc(N3CCNCC3)c(F)cc2c1=O [CIPROFLOXACIN] |  | 7
14 | NC(=O)OCC(COC(N)=O)c1ccccc1 [FELBAMATE] |  | 7
15 | CC(=O)O[C@@]12CO[C@@H]1C[C@H](O)[C@@]1(C)C(=O)[C@H](O)C3=C(C)[C@@H](OC(=O)[C@H](O)[C@@H](NC(=O)OC(C)(C)C)c4ccccc4)C[C@@](O)([C@@H](OC(=O)c4ccccc4)[C@H]21)C3(C)C.O.O.O [DOCETAXEL] |  | 8
16 | CCC[C@@]1(CCc2ccccc2)CC(O)=C([C@H](CC)c2cccc(NS(=O)(=O)c3ccc(C(F)(F)F)cn3)c2)C(=O)O1 |  | 8
17 | Nc1ccn([C@@H]2O[C@H](CO)[C@@H](O)[C@@H]2O)c(=O)n1 [CYTARABINE] | 3 | 
18 | CCCCCCCCCCC[C@@H](C[C@@H]1OC(=O)[C@H]1CCCCCC)OC(=O)[C@H](CC(C)C)NC=O [ORLISTAT] |  | 8
19 | O=c1[nH]cnc2c1ncn2[C@H]1CC[C@@H](CO)O1 [DIDANOSINE] |  | 8
20 | CC[C@@H](CO)NCCN[C@@H](CC)CO [ETHAMBUTOL] |  | 8
21 | CC(C)c1nc(CN(C)C(=O)N[C@H](C(=O)N[C@@H](Cc2ccccc2)C[C@H](O)[C@H](Cc2ccccc2)NC(=O)OCc2cncs2)C(C)C)cs1 [RITONAVIR] |  | 5

Row | SMILES | LTKB_BD DILI severity score (Liver) | LTKB_BD DILI severity score
22 | CN(Cc1cnc2nc(N)nc(N)c2n1)c1ccc(C(=O)N[C@@H](CCC(=O)O)C(=O)O)cc1 [METHOTREXATE] |  | 3
23 | CCc1nn(CCCN2CCN(c3cccc(Cl)c3)CC2)c(=O)n1CCOc1ccccc1 [NEFAZODONE] |  | 8
24 | CC(C(=O)O)c1cccc(Oc2ccccc2)c1 (stereo not drawn) [FENOPROFEN] |  | 8
25 | Nc1c2c(nc3ccccc13)CCCC2 [TACRINE] | 7 | 
26 | CCCc1cc(=O)[nH]c(=S)[nH]1 [PROPYLTHIOURACIL] | 8 | 
27 | O=C1CN(/N=C/c2ccc([N+](=O)[O-])o2)C(=O)N1 [NITROFURANTOIN] | 8 | 
28 | Cc1cc(NS(=O)(=O)c2ccc(N)cc2)no1 [SULFAMETHOXAZOLE] |  | 7
29 | CNCCC=C1c2ccccc2CCc2ccccc21 [NORTRIPTYLINE] | 8 | 
30 | CC(O)(CS(=O)(=O)c1ccc(F)cc1)C(=O)Nc1ccc(C#N)c(C(F)(F)F)c1 (stereo not drawn) [BICALUTAMIDE] |  | 8
31 | O=C1CC[C@@]2(O)[C@H]3Cc4ccc(O)c5c4[C@@]2(CCN3CC2CC2)[C@H]1O5 [NALTREXONE] |  | 3
32 | NC(=O)N1c2ccccc2C=Cc2ccccc21 [CARBAMAZEPINE] |  | 7
33 | C[C@H]1O[C@H](O[C@H]2[C@H](O)[C@@H](O)[C@@H](O[C@H]3[C@H](O)[C@@H](O)C(O)O[C@@H]3CO)O[C@@H]2CO)[C@H](O)[C@@H](O)[C@@H]1N[C@H]1C=C(CO)[C@@H](O)[C@H](O)[C@H]1O (stereo partly drawn) [ACARBOSE] |  | 5
34 | C[C@H](Cn1cnc2c(N)ncnc21)OCP(=O)(O)O [TENOFOVIR ANHYDROUS] |  | 8
35 | CC(=O)N1CCN(c2ccc(OCC3COC(Cn4ccnc4)(c4ccc(Cl)cc4Cl)O3)cc2)CC1 (stereo not drawn) [KETOCONAZOLE] |  | 8
36 | CN(C/C=C/C#CC(C)(C)C)Cc1cccc2ccccc12 [TERBINAFINE] |  | 8
37 | CS(=O)(=O)CCNCc1ccc(-c2ccc3ncnc(Nc4ccc(OCc5cccc(F)c5)c(Cl)c4)c3c2)o1 [LAPATINIB] |  | 8
38 | CC1=C(CC(=O)O)c2cc(F)ccc2/C1=C\c1ccc([S+](C)[O-])cc1 (stereo not drawn) |  | 8
39 | Cc1ccc(C(=O)c2cc(O)c(O)c([N+](=O)[O-])c2)cc1 [TOLCAPONE] | 8 | 
40 | Cc1oncc1C(=O)Nc1ccc(C(F)(F)F)cc1 [LEFLUNOMIDE] |  | 8
41 | CC1=NN(c2ccc(C)c(C)c2)C(=O)/C1=N\Nc1cccc(-c2cccc(C(=O)O)c2)c1O [ELTROMBOPAG] | 6 | 
42 | CCCCc1oc2ccccc2c1C(=O)c1cc(I)c(OCCN(CC)CC)c(I)c1 [AMIODARONE] |  | 8

Row | SMILES | LTKB_BD DILI severity score (Liver) | LTKB_BD DILI severity score
43 | C[C@]12C/C(=C/O)C(=O)C[C@@H]1CC[C@@H]1[C@@H]2CC[C@@]2(C)[C@H]1CC[C@]2(C)O [OXYMETHOLONE] |  | 8
44 | CC(C)C(=O)Nc1ccc([N+](=O)[O-])c(C(F)(F)F)c1 [FLUTAMIDE] |  | 8
45 | CC(c1cc2ccccc2s1)N(O)C(N)=O (stereo not drawn) [ZILEUTON] |  | 5
46 | Cc1cn([C@H]2C[C@H](N=[N+]=[N-])[C@@H](CO)O2)c(=O)[nH]c1=O [ZIDOVUDINE] |  | 8
47 | Nc1ccn([C@H]2CC[C@@H](CO)O2)c(=O)n1 [ZALCITABINE] | 8 | 
48 | COc1cc(C(=O)NS(=O)(=O)c2ccccc2C)ccc1Cc1cn(C)c2ccc(NC(=O)OC3CCCC3)cc12 [ZAFIRLUKAST] |  | 8
49 | CN(N=O)C(=O)N[C@@H](C=O)[C@@H](O)[C@H](O)[C@H](O)CO [STREPTOZOCIN] |  | 3
50 | C[C@]12COC(=O)C[C@@H]1CC[C@@H]1[C@@H]2CC[C@@]2(C)[C@H]1CC[C@]2(C)O [OXANDROLONE] |  | 8
51 | CCc1cccc2c3c([nH]c12)C(CC)(CC(=O)O)OCC3 (stereo not drawn) [ETODOLAC] |  | 8
52 | Cc1cn([C@H]2C=C[C@@H](CO)O2)c(=O)[nH]c1=O [STAVUDINE] |  | 8
53 | Nc1ccc(C(=O)O)c(O)c1 [AMINOSALICYLIC ACID] |  | 5
54 | OC(Cn1cncn1)(Cn1cncn1)c1ccc(F)cc1F [FLUCONAZOLE] | 8 | 
55 | O=C1CN(/N=C/c2ccc(-c3ccc([N+](=O)[O-])cc3)o2)C(O)=N1 [DANTROLENE] |  | 8
56 | C#C[C@]1(O)CC[C@H]2[C@@H]3CCC4=Cc5oncc5C[C@]4(C)[C@H]3CC[C@@]21C [DANAZOL] |  | 8
57 | Cc1cc(C(=O)NNCc2ccccc2)no1 [ISOCARBOXAZID] |  | 5
58 | C[C@@](Cc1ccc(O)c(O)c1)(NN)C(=O)O.O [CARBIDOPA] |  | 4
59 | CC(C)(C)NC(=O)[C@@H]1CN(Cc2cccnc2)CCN1C[C@@H](O)C[C@@H](Cc1ccccc1)C(=O)N[C@H]1c2ccccc2C[C@H]1O.O |  | 8
60 | O=C(O)c1ccc(-n2nc(-c3ccccc3O)nc2-c2ccccc2O)cc1 [DEFERASIROX] |  | 7
61 | Nc1nc(NC2CC2)c2ncn([C@H]3C=C[C@@H](CO)C3)c2n1 [ABACAVIR] |  | 8
62 | COc1ccc(CCN(C)CCCC(C#N)(c2ccc(OC)c(OC)c2)C(C)C)cc1OC (stereo not drawn) |  | 4
63 | COc1ccccc1Oc1c(NS(=O)(=O)c2ccc(C(C)(C)C)cc2)nc(-c2ncccn2)nc1OCCO [BOSENTAN] |  | 7
